Measurements taken from US11278541B2, “Low dose combination therapy for treatment of myeloproliferative neoplasms” (Incyte Corporation, priority 2017, dated 2022).
Counter-ions that a name gives are not always drawn.

What was measured:
[1] = system: pBAD in KMS12BM cell line; assay: pBAD inhibition by patient plasma samples incubated ex vivo with KMS12BM cell line; format: in vivo, human; details: KMS-12-BM, 192 h; 80 mg BID, cycle 1, day 8, time course
Experimental: Plasma samples from patients were incubated ex vivo with the KMS12BM cell line for 2.5 hours at 37° C. Whole cell lysates were prepared from the cells, and levels of pBAD were determined using an ELISA.

[2] = biological target: T1, Pim1 (Homo sapiens, UniProt P11309); assay: Pim-1 kinase assay (Assay B); format: biochemical; details: 1 mM ATP
T1 construct: purchased Invitrogen PV3503
Experimental: Pim-1 and Pim-3 kinase assays—20 μL reactions were run in white 384 well polystyrene plates dotted with 0.8 μL compound/DMSO in the assay buffer (50 mM Tris, pH 7.5, 0.01% Tween-20, 5 mM MgCl2, 0.01% BSA, 5 mM DTT), containing 0.05 μM Biotin-labeled BAD peptide substrate (AnaSpec 62269), 1 mM ATP, and 2.5 pM (Pim-1, Invitrogen PV3503) or 1.25 pM (Pim-3, Millipore 14-738) enzyme for 1 h at 25° C. Reactions were stopped by addition of 10 μL STOP Buffer (150 mM Tris, pH=7.5, 150 mM NaCl, 75 mM EDTA, 0.01% Tween-20, 0.3% BSA) supplemented with Phospho-Bad (Ser112) Antibody (Cell Signaling 9291) diluted 666-fold, and Streptavidin donor beads (PerkinElmer 6760002) along with Protein-A acceptor beads (PerkinElmer 6760137) at 15 μg/mL each. Supplementation of the STOP buffer with beads and stopping the reactions were done under reduced light. Prior to the stopping reactions STOP buffer with beads was pre-incubated for 1 h in the dark at room temperature. After stopping the reactions, plates were incubated for 1 h in the dark at room temperature before reading on a PHERAstar FS plate reader (BMG Labtech) under reduced light.

[3] = Free fraction in media of the Example 3 assay; format: in vitro ADME; details: cell assay media (Example 3 assay); media of Example 3 assay
From the text: The assay in Example 3 involved plating cells from blood in media. […] The serum free fraction and media free fractions of 7% and 58% can be used to convert the results in Example 3 to an human dose assuming a linear dose-response curve.

[4] = Protein binding in human serum (equilibrium dialysis); format: in vitro ADME; details: 0.3 μM-10 μM
Experimental: For human, the average in vitro serum fraction unbound (fu) of 7.0%. For the protein binding determination, the Multi-Equilibrium Dialyzer System™ and diachema membranes from Harvard Apparatus (Holliston, Mass.) were utilized. Samples were protein precipitated, matrix matched and then centrifuged. The supernatant was transferred and analyzed using LC-MS/MS. The percent fraction unbound for in vitro samples was calculated using final peak area ratios in post-dialysis buffer divided by final peak area ratios in post-dialysis serum, with correction applied for volume shift.

[5] = system: Peripheral blood mononuclear cells from an MPN patient (PV, JAK2-V617F+); assay: Epo-independent erythroid colony formation; format: cell-based, human; details: Compound 1 alone, colonies scored after 12 days
From the text: Epo-independent erythroid colonies were scored after 12 days. […] The lower measured % growth indicates synergy.

[6] = biological target: T2, Pim2 (Homo sapiens, UniProt Q9P1W9); assay: Pim-2 kinase assay (Assay B); format: biochemical; details: 1 mM ATP
T2 construct: purchased Invitrogen PV3649
Experimental: Pim-2 kinase assay—20 μL reactions were run in white 384 well polystyrene plates dotted with 0.8 μL compound/DMSO in the assay buffer (50 mM Tris, pH 7.5, 0.01% Tween-20, 5 mM MgCl2, 0.01% BSA, 5 mM DTT), containing 0.05 μM Fluorescein-labeled CREBtide peptide substrate (Invitrogen PV3508), 1 mM ATP, and 1 nM enzyme (Invitrogen PV3649) for 2 h at 25° C. Reactions were stopped by addition of 10 μL TR-FRET Dilution Buffer (Invitrogen PV3574) with 30 mM EDTA and 1.5 nM LanthaScreen Tb-CREB pSer133 antibody (Invitrogen PV3566). After 30 min. incubation at room temperature, plates were read on a PHERAstar FS plate reader (BMG Labtech).

[7] = biological target: Pim3 (Homo sapiens, UniProt Q86V86); assay: Pim-3 kinase assay (Assay B); format: biochemical; details: 1 mM ATP
[8] = Conversion of Example 3 cell activity to protein-binding adjusted activity and human dose

T1 sequence (P11309 whole entry): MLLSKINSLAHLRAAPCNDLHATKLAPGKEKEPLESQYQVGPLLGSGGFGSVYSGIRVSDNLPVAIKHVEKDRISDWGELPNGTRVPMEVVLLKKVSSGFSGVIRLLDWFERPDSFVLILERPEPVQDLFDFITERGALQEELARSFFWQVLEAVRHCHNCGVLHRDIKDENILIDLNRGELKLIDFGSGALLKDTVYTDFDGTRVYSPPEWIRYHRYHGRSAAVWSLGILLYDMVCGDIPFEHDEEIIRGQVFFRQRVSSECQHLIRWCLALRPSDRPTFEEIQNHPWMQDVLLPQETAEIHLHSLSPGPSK
T2 sequence (Q9P1W9 whole entry): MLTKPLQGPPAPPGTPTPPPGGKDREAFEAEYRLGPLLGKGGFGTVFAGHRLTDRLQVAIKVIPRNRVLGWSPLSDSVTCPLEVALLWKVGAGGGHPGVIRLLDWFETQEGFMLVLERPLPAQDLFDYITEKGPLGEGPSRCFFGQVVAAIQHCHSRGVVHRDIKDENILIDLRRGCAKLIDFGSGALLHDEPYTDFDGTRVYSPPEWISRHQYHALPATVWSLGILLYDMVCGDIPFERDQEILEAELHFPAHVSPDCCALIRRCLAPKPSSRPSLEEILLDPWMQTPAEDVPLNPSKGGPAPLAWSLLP

Row | SMILES | inhibition at 80 mg [1] [%] | IC50 [2] [nM] | fraction unbound [3] | protein binding [4] | fraction unbound ([4]; read-out: average in vitro serum fraction unbound (fu)) | neoplastic erythroid colony formation of JAK2-V617F(+) MPN hematopoietic progenitors [5] | IC50 [6] [nM] | IC50 [7] [nM] | shift in activity (media to serum protein binding) ([8]; (58%)/7%) [fold] | inhibition level corresponding to protein-binding adjusted activity ([8]; adjusted activity 8.3 nM) | inhibition level corresponding to protein-binding adjusted activity ([8]; adjusted activity 41 nM) | Protein-binding adjusted activity ([8]; cell activity Example 3: 1 nM) [nM] | Protein-binding adjusted activity ([8]; cell activity Example 3: 5 nM) [nM] | Protein-binding adjusted activity ([8]; cell activity Example 3: 20 nM) [nM]
1 | C[C@H]1CN(c2c(NC(=O)c3ccc(F)c(-c4c(F)cccc4F)n3)cnc3c2CC[C@H]3O)C[C@@H](N)[C@@H]1O [Compound 1, N-{(7R)-4-[(3R,4R,5S)-3-Amino-4-hydroxy-5-methylpiperidin-1-yl]-7-hydroxy-6,7-dihydro-5H-cyclopenta[b]pyridin-3-yl}-6-(2,6-difluorophenyl)-5-fluoropyridine-2-carboxamide] | 76 | ≤ 100 | 0.58 | high protein binding | 0.07 | Inhibition | ≤ 100 | ≤ 100 | 8.3 | IC5.7 | IC23 | 8.3 | 41 | 166
2 | C[C@H]1CN(c2c(NC(=O)c3ccc(F)c(-c4c(F)cccc4F)n3)cnc3c2CC[C@H]3O)C[C@@H](N)[C@@H]1O [dihydrochloric acid salt of Compound 1] |  | < 35 |  |  |  |  | < 35 | < 35 |  |  |  |  |  | 
3 | C[C@H]1CN(c2c(NC(=O)c3ccc(F)c(-c4c(F)cccc4F)n3)cnc3c2CC[C@H]3O)C[C@@H](N)[C@@H]1O [phosphoric acid salt of Compound 1] |  | < 35 |  |  |  |  | < 35 | < 35 |  |  |  |  |  | 
